# Read-outs that look alike come from different tables or passages of the source.
# Key:
# [1] = test system: normal, human-derived tracheal/bronchial epithelial (TBE) cells
# [2] = Intranasal safety profile of rintatolimod compared with EC90; format: in vivo, humans; conditions: dose concentration 2500 μg/ml (45×EC90)
# [3] = Clinical trials of tdsRNA (safety); format: in vivo
# Description: tdsRNA has undergone extensive clinical and preclinical testing. […] Favorable safety profiles have been seen for intraperitoneal, intravenous, and intranasal routes of administration of tdsRNA.
# [4] = over 1,200 patients, over 100,000 doses administered
substance,measurement,setting,value
rIn•r(C12U)n [Rintatolimod],cellular toxicity,[1]; 0.5 mg/mL,0%
same,cellular toxicity,[1]; 1.5 mg/mL,0%
same,cytotoxic,[1]; 4.5 mg/mL,12%
same,cytotoxic,[1]; 10 mg/mL,47%
same,Intranasal tolerability in humans,[2],well tolerated in humans
same,drug-related deaths,[3]; [4],no drug-related deaths
same,tolerability in clinical trials,[3]; [4],generally well-tolerated
same,serious adverse events compared to placebo,"[3]; two placebo-controlled, randomized studies",no increase in serious adverse events compared to placebo
